Experimental data reported in paper PMC9603901, “Therapeutic Potential of Antimicrobial Peptide PN5 against Multidrug-Resistant E. coli and Anti-Inflammatory Activity in a Septic Mouse Model” (Microbiology Spectrum, 2022).
Converted amounts (≈) assume the structure as drawn. Where two headings read alike, the source gives them in different places. Where no end group is shown, it is not given here.

Columns and labels:
MDR E. coli ASEC 16 [1] = tested on: MDR E. coli ASEC 16; parameters: method as in Asan hospital; key to susceptibility category: S: susceptible; R: resistant; I: intermediate; settings: ref Asan hospital, cited from earlier work; for MIC: ASEC 16 (AmpC), resistance information of clinical isolate; for susceptibility category: ASEC 16
MDR E. coli ASEC 17 [2] = assay: microbe, parasite or virus in culture; type: cell-based, Escherichia coli; settings: microdilution, LB, 18 to 24 h, 37°C, three independent experiments
Description: (§1) Bacterial cells were cultured at 37°C in the appropriate culture media with shaking (180 rpm). Luria-Bertani broth (LB) (244620; BD Difco) was used for E. coli ATCC 25922, ASEC strains, and B. subtilis KCTC 2217. Nutrient broth (NB) (234000; BD Difco) was used for P. aeruginosa ATCC 27853, S. Typhimurium KCTC 1926, and A. baumannii KCTC 2508. Tryptic soy broth (TSB) (211825; BD Difco) was used for S. aureus ATCC 25923. Finally, brain heart infusion (BHI) (237500; BD Difco) was used for L. monocytogenes KCTC 3710. The antimicrobial activity of each peptide was determined using microdilution assays. To this end, 2-fold serial dilution series of each peptide (from 1 to 64 μM) were added to duplicate media with 10 mM sodium phosphate buffer (pH 7.4). Fifty microliters of the peptide and antibiotic solution was added to each well of a 96-well plate (32096, surface nontreatment; SPL Life Sciences). Then, 50 μL of 2 × 10^5 CFU mL^−1 of bacteria was added to each well, and the samples were incubated for 18 to 24 h without shaking at 37°C.

MDR E. coli ASEC 14 = assay: microbe, parasite or virus in culture; type: cell-based, Escherichia coli; settings: microdilution, LB, 18 to 24 h, 37°C, three independent experiments
Description: as §1

MDR E. coli ASEC 7 = assay: microbe, parasite or virus in culture; type: cell-based, Escherichia coli; settings: microdilution, LB, 18 to 24 h, 37°C, three independent experiments
Description: as §1

MDR E. coli ASEC 15 = assay: microbe, parasite or virus in culture; type: cell-based, Escherichia coli; settings: microdilution, LB, 18 to 24 h, 37°C, three independent experiments
Description: as §1

MDR E. coli ASEC 9 = assay: microbe, parasite or virus in culture; type: cell-based, Escherichia coli; settings: microdilution, LB, 18 to 24 h, 37°C, three independent experiments
Description: as §1

MDR E. coli ASEC 5 = assay: microbe, parasite or virus in culture; type: cell-based, Escherichia coli; settings: microdilution, LB, 18 to 24 h, 37°C, three independent experiments
Description: as §1

MDR E. coli ASEC 1 [3] = assay: microbe, parasite or virus in culture; type: cell-based, Escherichia coli; settings: microdilution, LB, 18 to 24 h, 37°C, three independent experiments
Description: as §1

MDR E. coli ASEC 11 = assay: microbe, parasite or virus in culture; type: cell-based, Escherichia coli; settings: microdilution, LB, 18 to 24 h, 37°C, three independent experiments
Description: as §1

MDR E. coli ASEC 6 = assay: microbe, parasite or virus in culture; type: cell-based, Escherichia coli; settings: microdilution, LB, 18 to 24 h, 37°C, three independent experiments
Description: as §1

MDR E. coli ASEC 12 = assay: microbe, parasite or virus in culture; type: cell-based, Escherichia coli; settings: microdilution, LB, 18 to 24 h, 37°C, three independent experiments
Description: as §1

MDR E. coli ASEC 18 = assay: microbe, parasite or virus in culture; type: cell-based, Escherichia coli; settings: microdilution, LB, 18 to 24 h, 37°C, three independent experiments
Description: as §1

E. coli ATCC 25922 = assay: microbe, parasite or virus in culture; type: cell-based, Escherichia coli; settings: LB, 2 × 10^5 CFU mL^−1, 18 to 24 h, 37°C, three independent experiments
Description: as §1

MDR E. coli ASEC 4 [4] = assay: microbe, parasite or virus in culture; type: cell-based, Escherichia coli; settings: microdilution, LB, 18 to 24 h, 37°C, three independent experiments
Description: as §1

MDR E. coli ASEC 13 = assay: microbe, parasite or virus in culture; type: cell-based, Escherichia coli; settings: microdilution, LB, 18 to 24 h, 37°C, three independent experiments
Description: as §1

MDR E. coli ASEC 8 [5] = assay: microbe, parasite or virus in culture; type: cell-based, Escherichia coli; settings: microdilution, LB, 18 to 24 h, 37°C, three independent experiments
Description: as §1

MDR E. coli ASEC 10 = assay: microbe, parasite or virus in culture; type: cell-based, Escherichia coli; settings: microdilution, LB, 18 to 24 h, 37°C, three independent experiments
Description: as §1

MDR E. coli ASEC 2 [6] = assay: microbe, parasite or virus in culture; type: cell-based, Escherichia coli; settings: microdilution, LB, 18 to 24 h, 37°C, three independent experiments
Description: as §1

MDR E. coli ASEC 16 [7] = assay: microbe, parasite or virus in culture; type: cell-based, Escherichia coli; settings: microdilution, LB, 18 to 24 h, 37°C, three independent experiments
Description: as §1

MDR E. coli ASEC 1 [8] = tested on: MDR E. coli ASEC 1; parameters: method as in Asan hospital; key to susceptibility category: S: susceptible; R: resistant; I: intermediate; settings: ref Asan hospital, cited from earlier work; for MIC: ASEC 1 (carbapenemase NDM-1), resistance information of clinical isolate; for susceptibility category: ASEC 1
MDR E. coli ASEC 8 [9] = tested on: MDR E. coli ASEC 8; parameters: method as in Asan hospital; key to susceptibility category: S: susceptible; R: resistant; I: intermediate; settings: ref Asan hospital, cited from earlier work; for MIC: ASEC 8 (ESBL), resistance information of clinical isolate; for susceptibility category: ASEC 8
MDR E. coli ASEC 4 [10] = tested on: MDR E. coli ASEC 4; parameters: method as in Asan hospital; key to susceptibility category: S: susceptible; R: resistant; I: intermediate; settings: ref Asan hospital, cited from earlier work; for MIC: ASEC 4 (ESBL), resistance information of clinical isolate; for susceptibility category: ASEC 4
MDR E. coli ASEC 17 [11] = tested on: MDR E. coli ASEC 17; parameters: method as in Asan hospital; key to susceptibility category: S: susceptible; R: resistant; I: intermediate; settings: ref Asan hospital, cited from earlier work; for MIC: ASEC 17 (AmpC), resistance information of clinical isolate; for susceptibility category: ASEC 17
MDR E. coli ASEC 2 [12] = tested on: MDR E. coli ASEC 2; parameters: method as in Asan hospital; key to susceptibility category: S: susceptible; R: resistant; I: intermediate; settings: ref Asan hospital, cited from earlier work; for MIC: ASEC 2 (NDM-7), resistance information of clinical isolate; for susceptibility category: ASEC 2
[13] = Escherichia coli, read-out: MIC
[14] = Escherichia coli, ATCC25922, microdilution, read-out: MIC

Molecule | MIC (MDR E. coli ASEC 16 [1]) | susceptibility category (MDR E. coli ASEC 16 [1]) | MIC (MDR E. coli ASEC 17 [2]; [13]) | MIC (MDR E. coli ASEC 14; [13]) | MIC (MDR E. coli ASEC 7; [13]) | MIC (MDR E. coli ASEC 15; [13]) | MIC (MDR E. coli ASEC 9; [13]) | MIC (MDR E. coli ASEC 5; [13]) | MIC (MDR E. coli ASEC 1 [3]; [13]) | MIC (MDR E. coli ASEC 11; [13]) | MIC (MDR E. coli ASEC 6; [13]) | MIC (MDR E. coli ASEC 12; [13]) | MIC (MDR E. coli ASEC 18; [13]) | MIC (E. coli ATCC 25922; [14]) | MIC (MDR E. coli ASEC 4 [4]; [13]) | MIC (MDR E. coli ASEC 13; [13]) | MIC (MDR E. coli ASEC 8 [5]; [13]) | MIC (MDR E. coli ASEC 10; [13]) | MIC (MDR E. coli ASEC 2 [6]; [13]) | MIC (MDR E. coli ASEC 16 [7]; [13]) | further results
CO/N=C(\C(=O)N[C@@H]1C(=O)N2C(C(=O)O)=C(COC(C)=O)CS[C@H]12)c1csc(N)n1 [Cefotaxime] | > 32 µg/mL | R | > 32 µM | > 32 µM | > 32 µM | > 32 µM | > 32 µM | > 32 µM | > 32 µM | > 32 µM | > 32 µM | > 32 µM | > 32 µM | < 1 µM | > 32 µM | > 32 µM | > 32 µM | > 32 µM | > 32 µM | > 32 µM | MIC (MDR E. coli ASEC 1 [8]): > 32 µg/mL; susceptibility category (MDR E. coli ASEC 1 [8]): R; MIC (MDR E. coli ASEC 8 [9]): > 32 µg/mL; susceptibility category (MDR E. coli ASEC 8 [9]): R; MIC (MDR E. coli ASEC 4 [10]): > 32 µg/mL; susceptibility category (MDR E. coli ASEC 4 [10]): R; MIC (MDR E. coli ASEC 17 [11]): > 32 µg/mL; susceptibility category (MDR E. coli ASEC 17 [11]): R; MIC (MDR E. coli ASEC 2 [12]): > 32 µg/mL; susceptibility category (MDR E. coli ASEC 2 [12]): R
CC(C)(O/N=C(\C(=O)N[C@@H]1C(=O)N2C(C(=O)[O-])=C(C[n+]3ccccc3)CS[C@H]12)c1csc(N)n1)C(=O)O [Ceftazidime] | > 16 µg/mL | R | > 32 µM | > 32 µM | 16 µM (≈ 8.75 µg/mL) | > 32 µM | > 32 µM | > 32 µM | > 32 µM | > 32 µM | > 32 µM | > 32 µM | > 32 µM | < 1 µM | > 32 µM | > 32 µM | > 32 µM | 32 µM (≈ 17.5 µg/mL) | > 32 µM | > 32 µM | MIC (MDR E. coli ASEC 1 [8]): > 16 µg/mL; susceptibility category (MDR E. coli ASEC 1 [8]): R; MIC (MDR E. coli ASEC 8 [9]): > 16 µg/mL; susceptibility category (MDR E. coli ASEC 8 [9]): R; MIC (MDR E. coli ASEC 4 [10]): > 16 µg/mL; susceptibility category (MDR E. coli ASEC 4 [10]): R; MIC (MDR E. coli ASEC 17 [11]): > 16 µg/mL; susceptibility category (MDR E. coli ASEC 17 [11]): R; MIC (MDR E. coli ASEC 2 [12]): > 16 µg/mL; susceptibility category (MDR E. coli ASEC 2 [12]): R
C[C@@H](O)[C@H]1C(=O)N2C(C(=O)O)=C(S[C@@H]3CN[C@H](C(=O)N(C)C)C3)[C@H](C)[C@H]12 [Meropenem] | <= 1 μg mL-1 | S | < 1 µM | 8 µM (≈ 3.07 µg/mL) | < 1 µM | < 1 µM | < 1 µM | 8 µM (≈ 3.07 µg/mL) | 1 µM (≈ 0.383 µg/mL) | < 1 µM | 16 µM (≈ 6.14 µg/mL) | 16 µM (≈ 6.14 µg/mL) | < 1 µM | < 1 µM | > 32 µM | 2 µM (≈ 0.767 µg/mL) | < 1 µM | < 1 µM | > 32 µM | < 1 µM | MIC (MDR E. coli ASEC 1 [8]): 8 µg/mL (≈ 20.9 µM); susceptibility category (MDR E. coli ASEC 1 [8]): R; MIC (MDR E. coli ASEC 8 [9]): <= 1 μg mL-1; susceptibility category (MDR E. coli ASEC 8 [9]): S; MIC (MDR E. coli ASEC 4 [10]): > 8 µg/mL; susceptibility category (MDR E. coli ASEC 4 [10]): R; MIC (MDR E. coli ASEC 17 [11]): <= 1 μg mL-1; susceptibility category (MDR E. coli ASEC 17 [11]): S; MIC (MDR E. coli ASEC 2 [12]): > 8 µg/mL; susceptibility category (MDR E. coli ASEC 2 [12]): R
FKFLARTGKFL-NH2 [PN5] | – | – | – | – | – | – | – | – | – | – | – | – | – | – | – | – | – | – | – | – | MIC (MDR E. coli ASEC 17 [2]): 8 (10.61) μM; MIC (MDR E. coli ASEC 14): 2 (2.65) μM; MIC (MDR E. coli ASEC 7): 8 (10.61) μM; MIC (MDR E. coli ASEC 15): 16 (21.22) μM; MIC (MDR E. coli ASEC 9): 16 (21.22) μM; MIC (MDR E. coli ASEC 5): 8 (10.61) μM; MIC (MDR E. coli ASEC 1 [3]): 8 (10.61) μM; MIC (MDR E. coli ASEC 11): 2 (2.65) μM; MIC (MDR E. coli ASEC 6): 4 (5.30) μM; MIC (MDR E. coli ASEC 12): 2 (2.65) μM; MIC (MDR E. coli ASEC 18): 16 (21.22) μM; MIC (E. coli ATCC 25922; microdilution): 16 (21.22) μM; MIC (MDR E. coli ASEC 4 [4]): 4 (5.30) μM; MIC (MDR E. coli ASEC 13): 8 (10.61) μM; MIC (MDR E. coli ASEC 8 [5]): 4 (5.30) μM; MIC (MDR E. coli ASEC 10): 8 (10.61) μM; MIC (MDR E. coli ASEC 2 [6]): 2 (2.65) μM; MIC (MDR E. coli ASEC 16 [7]): 4 (5.30) μM
